Data: US20040121946A9, “Inducing cellular immune responses to her2/neu using peptide and nucleic acid compositions” (priority 2002, published 2004)
pIC50: −log10 of the molar value. Read-outs that look alike come from different tables or passages of the source.

What was measured:
DRB1*0101 (DR1) = DRB1*0101 (DR1) (Homo sapiens, UniProt P01903+P01911, A100R/D57E/F55L/F60I/F76Y/I96L/L162R/M171V/P40L/Q125E/R42F/V115G/Y59C); assay: HLA class II peptide binding assay, purified HLA; conditions: unit not given
DRB1*0301 (DR3) = DRB1*0301 (DR3) (Homo sapiens, UniProt P01903+P01911, A100K/A102G/A103R/A169T/F55Y/I96L/K41T/L162R/M171V/P40S/Q125H/Q178H/Q39Y/R42S/S66N/T106N/T262R/W38E/Y61H); assay: HLA class II peptide binding assay, purified HLA; conditions: unit not given
DRB1*0401 (DR4w4) = DRB1*0401 (DR4w4) (Homo sapiens, UniProt P01903+P01911, A100K/A169T/F76Y/I96L/K127E/L162R/M171V/N62H/P40V/Q125Y/R42H/S133A/S149N/S66Y/V115G/V209L/W38E); assay: HLA class II peptide binding assay, purified HLA; conditions: unit not given
DRB1*0701 (DR7) = DRB1*0701 (DR7) (Homo sapiens, UniProt P01903+P01911, A100R/A102G/A103Q/D57E/D86V/E43K/F76Y/K127E/L162R/M171V/P40G/Q125H/Q99D/R33Q/R42Y/R54Q/S133A/S66F/T210M/V115G/Y107V/Y59L/Y89S); assay: HLA class II peptide binding assay, purified HLA; conditions: unit not given
DRB1*0802 (DR8w2) = DRB1*0802 (DR8w2) (Homo sapiens, UniProt P01903+P01911, A100R/A103L/A169T/F76Y/H45Y/I96F/K41T/L162R/M171V/P40S/Q125H/Q178H/Q39Y/Q99D/R218S/R42G/S66Y/V115G/W38E); assay: HLA class II peptide binding assay, purified HLA; conditions: for DR8w2 binding data: unit not given
DRB1*1101 (DR5w11) = DRB1*1101 (DR5w11) (Homo sapiens, UniProt P01903+P01911, A100R/A169T/A87E/I96F/K41T/L162R/M171V/P40S/Q125H/Q178H/Q39Y/Q99D/R42S/S66Y/T262R/V115G/W38E); assay: HLA class II peptide binding assay, purified HLA; conditions: for DR5w11 binding data: unit not given
DRB1*1302 (DR6w19) = DRB1*1302 (DR6w19) (Homo sapiens, UniProt P01903+P01911, A100E/A169T/K41T/L162R/M171V/P40S/Q125H/Q178H/Q39Y/Q99D/R42S/S66N/T262R/V115G/W38E/Y61H); assay: HLA class II peptide binding assay, purified HLA; conditions: for DR6w19 binding data: unit not given
DRB1*1501 (DR2w2β1) = DRB1*1501 (DR2w2β1) (Homo sapiens, UniProt P01903+P01911); assay: HLA class II peptide binding assay, purified HLA; conditions: for DR2wB1 binding data: Table XIX, DR supermotif peptides
DRB5*0101 (DR2w2β2) = DRB5*0101 (DR2w2β2) (Homo sapiens, UniProt P01903+Q30154); assay: HLA class II peptide binding assay, purified HLA; conditions: for DR2w2B2 binding data: unit not given
[1] = test system: HLA-DR molecules (DR1, DR4w4, DR7, DRB5*0101, DRB1*1501, DRB1*1101, DRB1*0802, DRB1*1302); assay: DR supertype cross-reactive binding; set-up: species or system human; conditions: for DR147 Binding / DR147 Cross-binding: number of DR1, DR4w4, DR7 bound; for DR147 Binding: Table XXIX; for DR147 Cross-binding: Table XXVIII; for Broad Binding (5/8): number of the 8 DR alleles bound; for No. of DR Alleles Crossbound: Table XXXI
[2] = Table XIX, DR supermotif peptides
[3] = Table XXa, DR 3a motif peptides

SMILES	DR1 binding data (DRB1*0101 (DR1); [2])	DR3 binding data (DRB1*0301 (DR3); [2])	DR4w4 binding data (DRB1*0401 (DR4w4); [2])	DR7 binding data (DRB1*0701 (DR7); [2])	DR8w2 binding data (DRB1*0802 (DR8w2); [2])	DR5w11 binding data (DRB1*1101 (DR5w11); [2])	DR6w19 binding data (DRB1*1302 (DR6w19); [2])	DR2wB1 binding data (DRB1*1501 (DR2w2β1); unit not given)	DR2w2B2 binding data (DRB5*0101 (DR2w2β2); [2])	DR147 Binding [1]	DR147 Cross-binding [1]	Broad Binding (5/8) [1]	No. of DR Alleles Crossbound [1]	also measured
CC[C@H](C)[C@H](NC(=O)[C@H](C)NC(=O)[C@@H](NC(=O)[C@@H]1CCCN1C(=O)[C@@H](NC(=O)[C@H](CCCCN)NC(=O)[C@@H](NC(=O)[C@H](CC(N)=O)NC(=O)[C@H](CCC(=O)O)NC(=O)CN)C(C)C)[C@@H](C)CC)C(C)C)C(=O)N[C@@H](CCCCN)C(=O)N[C@H](C(=O)N[C@@H](CC(C)C)C(=O)N[C@@H](CCCNC(=N)N)C(=O)N[C@@H](CCC(=O)O)C(=O)O)C(C)C	0.0630	0.0098	−0.0032	0.0310	0.0010	−0.0005	0.0004	0.0047	0.0034	2	2	2	–	–
CC[C@H](C)[C@H](NC(=O)[C@H](CCSC)NC(=O)[C@H](Cc1ccc(O)cc1)NC(=O)[C@@H](NC(=O)[C@H](CC(=O)O)NC(=O)[C@@H](NC(=O)[C@@H](NC(=O)[C@H](CS)NC(=O)[C@@H](NC(=O)[C@@H]1CCCN1C(=O)[C@@H]1CCCN1C(=O)[C@@H](N)CCC(N)=O)[C@@H](C)CC)[C@@H](C)O)[C@@H](C)CC)C(C)C)C(=O)N[C@@H](CCSC)C(=O)N[C@H](C(=O)N[C@@H](CCCCN)C(=O)O)C(C)C	0.0670	0.0976	0.0060	0.1000	0.0051	0.0046	0.0013	0.0540	0.0027	2	2	3	–	–
CC(C)C[C@H](NC(=O)[C@H](CC(=O)O)NC(=O)[C@H](CCCNC(=N)N)NC(=O)[C@H](Cc1c[nH]cn1)NC(=O)[C@@H](NC(=O)[C@H](CC(C)C)NC(=O)[C@H](CCCNC(=N)N)NC(=O)[C@@H](N)C(C)C)C(C)C)C(=O)N[C@@H](C)C(=O)N[C@@H](C)C(=O)N[C@@H](CCCNC(=N)N)C(=O)N[C@@H](CC(N)=O)C(=O)N[C@H](C(=O)N[C@@H](CC(C)C)C(=O)N[C@H](C(=O)O)C(C)C)C(C)C	0.0340	0.3400	0.0150	0.0230	0.1000	0.2700	0.0430	0.0064	0.0033	–	–	–	4	DR1 binding data (DRB1*0101 (DR1); [3]): 0.0340; DR3 binding data (DRB1*0301 (DR3); [3]): 0.3400; DR4w4 binding data (DRB1*0401 (DR4w4); [3]): 0.0150; DR7 binding data (DRB1*0701 (DR7); [3]): 0.0230; pIC50 (DRB1*0802 (DR8w2); Table XXXI): 6.31; DR8w2 binding data (DRB1*0802 (DR8w2); [3]): 0.1000; pIC50 (DRB1*1101 (DR5w11); Table XXXI): 7.13; DR5w11 binding data (DRB1*1101 (DR5w11); [3]): 0.2700; pIC50 (DRB1*1302 (DR6w19); Table XXXI): 7.09; DR6w19 binding data (DRB1*1302 (DR6w19); [3]): 0.0430; DR2w2B1 binding data (DRB1*1501 (DR2w2β1); Table XXa, DR 3a motif peptides, unit not given): 0.0064; DR2w2B2 binding data (DRB5*0101 (DR2w2β2); [3]): 0.0033
CC[C@H](C)[C@H](NC(=O)CNC(=O)[C@H](CC(C)C)NC(=O)[C@H](CC(C)C)NC(=O)[C@H](CCCNC(=N)N)NC(=O)[C@@H](N)CO)C(=O)N[C@@H](CS)C(=O)N[C@@H](CC(C)C)C(=O)N[C@H](C(=O)N[C@@H](CO)C(=O)N[C@H](C(=O)N[C@H](C(=O)N[C@@H](CCC(N)=O)C(=O)N[C@@H](CC(C)C)C(=O)N[C@H](C(=O)O)C(C)C)C(C)C)[C@@H](C)O)[C@@H](C)O	0.3500	0.0062	0.1200	0.5600	0.0009	0.0140	0.3400	0.0220	−0.0007	3	3	5	5	–
CC[C@H](C)[C@H](NC(=O)[C@H](CCCNC(=N)N)NC(=O)CNC(=O)[C@H](CCCNC(=N)N)NC(=O)[C@@H](NC(=O)[C@@H](NC(=O)[C@H](CCC(N)=O)NC(=O)[C@H](CC(C)C)NC(=O)[C@H](CC(N)=O)NC(=O)[C@H](CCC(N)=O)NC(=O)[C@H](Cc1ccccc1)NC(=O)[C@@H](NC(=O)[C@H](CO)NC(=O)[C@@H](N)CC(C)C)C(C)C)C(C)C)[C@@H](C)CC)C(=O)N[C@@H](CC(C)C)C(=O)O	0.1800	0.0010	0.0670	0.2900	0.0330	0.0100	0.0057	0.0280	0.0740	3	3	6	–	–
CSCC[C@H](NC(=O)[C@@H](NC(=O)[C@H](Cc1ccc(O)cc1)NC(=O)[C@H](C)NC(=O)[C@H](CCC(=O)O)NC(=O)[C@@H](N)CC(=O)O)C(C)C)C(=O)N[C@@H](C)C(=O)NCC(=O)N[C@H](C(=O)NCC(=O)N[C@@H](CO)C(=O)N1CCC[C@H]1C(=O)N[C@@H](Cc1ccc(O)cc1)C(=O)N[C@H](C(=O)N[C@@H](CO)C(=O)O)C(C)C)C(C)C	0.0500	0.0010	0.2300	0.2000	0.0570	0.0027	0.0020	0.0029	0.0240	3	3	5	5	pIC50 (DRB1*0802 (DR8w2); Table XXIX, read-out: DR8w2 nM): 6.07; pIC50 (DRB1*1302 (DR6w19); Table XXIX, read-out: DR6w19 nM): 5.76; pIC50 (DRB1*1501 (DR2w2β1); Table XXIX, read-out: DR2w2β1 nM): 5.50; pIC50 (DRB5*0101 (DR2w2β2); Table XXIX, read-out: DR2w2β2 nM): 6.08
